Experimental data: patent EP2880993A1, “Method of achieving memory and learning improvement by the administration of sialic acid” (ABBOTT LABORATORIES, priority 2013, dated 2015)
Entries after “also recorded” stand apart in the source; their conditions may differ.

How the values were obtained:
rats [1] = test: Y-maze testing, Example 2 (Acquisition Trial and Retention Trial); format: in vivo, Sprague-Dawley rat; conditions: 14 months old; for latency to blocked arm: Retention Trial 4 hours after Acquisition Trial, compared with Control group, FIG. 6; for percentage of animals visiting the previously blocked arm first: Retention Trial, compared with control animals, FIG. 7
Description: A Y-maze test was performed when the rats were 14 months old, which corresponds to 50-55 years old in humans. Eight rats in each group were tested. The Y-maze testing was performed in two phases: an Acquisition Trial and a Retention Trial. Rats in each group were evaluated in the Y-maze.
(§1) During the Acquisition Trial, one of the three arms of the Y-maze was blocked, and animals were allowed to explore the other two arms for 15 minutes. The Retention Trial took place 4 hours after the Acquisition Trial. During the Retention Trial, all three arms were open and animals were allowed to explore for 5 minutes. The amount of time each animal spent at the start of the Y-maze and each arm was evaluated.

[2] = system: hippocampal CA3-CAl areas; test: Long-term potentiation (LTP) testing in vivo, Example 2; parameters: species or system Sprague-Dawley rat; conditions: 11 months old, FIG. 4; for persistence of LTP induction: after the second day, followed for up to 4 days; for fEPSP values / LTP response evoked after the HFS train, in words: compared with Control group (and NeuAc group)
Description: In order to establish the role of sialylated oligosaccharides in cognition, rat pups were supplemented with 6'-sialyllactose (6'-SL) from postnatal day 3 (PND3) and their learning and memory abilities were analyzed later in life. Rat performance in a classical spatial cognitive task (Y-maze), Novel object Recognition, protocol of spatial learning in the novel Intellicage® system, and Morris water maze were carried out once the animals reached 12 and 14 months of age. LTP response in hippocampus was also evaluated in vivo once the animals reached 11 months of age. The Y-maze, Object Recognition and the IntelliCage® allow the determination of spatial orientation and memory capabilities of experimental animals. The same female rats performed all the tests.
The pups from the second cohort were divided into three groups and given the following designations: the 6'-SL supplemented group, the NeuAc supplemented group and the control group. Initially, each group comprised 20 male pups. Due to premature deaths there were a total of 14 pups in the 6'-SL supplemented group at the end of the lactation. The 6'-SL supplemented group received 6'-SL supplementation (8 doses/day) in order to reach the same sialic acid levels as normally reared pups. The amount of 6'-SL given to the 6'-SL supplemented group was selected to follow the change in concentration of sialic acid in rat milk, ranging from 1.5 g/Kg body weight on day 3 to 0.5 g/Kg body weight at weaning. The maximum amount of sialic acid given to a pup was a maximum of 2 mg/Kg on day 8.
There were a total of 16 male pups in the NeuAc supplemented group at the end of lactation. The NeuAc supplemented group received NeuAc supplementation in order to reach the same sialic acid levels as normally reared pups. The amount of NeuAc given to the NeuAc supplemented group was selected to follow the change in concentration of sialic acid in rat milk, ranging from 1.5 g/Kg body weight on day 3 to 0.5 g/Kg body weight at weaning. The maximum amount of sialic acid given to any pup was 2 mg/Kg on day 8,
Long-term potentiation (LTP) measurements were performed in each of the three groups, i.e., the 6'-SL Supplemented Group, the NeuAc -Supplemented Group and the Control Group. The testing was done while the animals were alive and 11 months old, which is about age 40 in human years. Experiments were done in order to determine the functionality of hippocampus in vivo. […]
To evoke LTP, the following high frequency stimulation (HFS) protocol was used: each animal was subjected to five 200 Hz, 100 ms trains of pulses at a rate of l/s. […] After the HFS protocol, fEPSPs were recorded again for 30 minutes. […]
The HFS train is indicated by the downward arrow. […] The baseline was recorded at 15, 10, and 5 minutes before HFS.

rats [3] = test: Intellicage testing, Example 2; format: in vivo, Sprague-Dawley rat; conditions: 14-15 months old, compared with Control group; for visits to the correct corner versus the incorrect corner (performance): FIG. 8
Description: IntelliCage® (NewBehavior AG) is a computer-based, fully automated testing apparatus used to analyze spontaneous and learned behavior. Eight rats in each group were tested. The rats were 14-15 months old, which corresponds to 55-60 years old for humans, when these tests were performed. Animals remain in the cage during several days and behavior is recorded during the entire testing period. Different paradigms can be tested by restricting water access to specific places and time periods. Each animal is assigned a corner where it can access water. Access to the water is only allowed during discrete time periods. Thus, each animal must learn when access to water bottles is allowed and which corner, out of four, has been assigned to it. Access to the corner is controlled by a door that opens only when the assigned rat enters its nose in a hole. […] Access to non-assigned corners remain blocked except during two 90 min periods during the night.

rats [4] = test: Novel Object Recognition testing, Example 2; format: in vivo, Sprague-Dawley rat; conditions: 13 months old, retention test one day after acquisition phase, FIG. 5
Description: Perirhinal cortex and hippocampus are involved in the novel object recognition task. Novel Object Recognition Testing was performed when the rats were 13 months old, which corresponds to 45-50 years old for humans. Eight animals were tested.
During a habituation phase of the test, the rats were allowed to explore an "arena" for 20 minutes per day for 3 consecutive days. The arena was a black, open plastic chamber. Next, an acquisition phase took place wherein the animals interfaced with two different objects. These object are defined as "familiar." The rats were allowed to the arena while the familiar objects were present for 10 minutes. One day after the acquisition phase, a retention test was performed on the rats, wherein one of the familiar objects was replaced by a new object. The new object is defined as "novel." The rats were allowed to explore the arena for 5 minutes during the retention test. In theory, animals that remember familiar objects will spend more time exploring the novel object than the familiar one.

[5] = system: hippocampal CA3-CAl areas; test: Long-term potentiation (LTP) testing in vivo, Example 1; parameters: species or system Sprague-Dawley rat; conditions: PND110; for LTP response evoked by the stimulus, in words: compared with Control Group and Reference Group
Description: Long-term potentiation (LTP) measurements were performed in each of the three groups, i.e., the Control Group, the SIA-supplemented Group and the Reference Group. The testing was done while the animals were alive and at postnatal day 110 (PND110). Postnatal day 110 in rats equates to approximately 10 to 20 years of age in the lifespan of a human. Since hippocampus is a key brain structure related to LTP memory, experiments were done in order to determine the functionality of hippocampus in vivo. Long-term potentiation (LTP) is considered as the electrophysiological base of memory. In these experiments, a higher response indicates better memory potential.
The test was performed after implantation of electrodes in the hippocampal CA3-CAl areas of the rats in each group. There were seven rats per group. Each animal had 4 electrodes inserted and LTP measurements were taken from each electrode. Synaptic field potentials in the CAl area were evoked by paired (40 ms of interval) 100 µs, square, biphasic (negative-positive) pulse applied to Schaffer collaterals. For each animal, the stimulus intensity was set well below the threshold for evoking a population spike, usually 30-40% of the intensity necessary for evoking a maximum field excitatory postsynaptic potential ("fEPSP') response. An excitatory postsynaptic potential (EPSP) is a temporary depolarization of postsynaptic membrane potential caused by the flow of positively charged ions into the postsynaptic cell as a result of opening of ligand-gated ion channels.
To evoke LTP, the following high frequency stimulation (HFS) protocol was used: each animal was subjected to five 200 Hz, 100 ms trains of pulses at a rate of l/s. These trains were presented 6 times in total, at intervals of 1 minutes. After the HFS protocol, fEPSPs were recorded again for 30 minutes. Additional recordings were carried out for 15 minutes during the 3 following days.
FIG. 3 depicts the results of the Long-term Potentiation Testing. FIG. 3 illustrates the results of induction of LTP by the use of a high-frequency stimulation (HFS) protocol. Results correspond to the slope of the field excitatory postsynaptic potential ("fEPSP') evoked by a second electronic pulse (which took place 40 ms after a first pulse). Significant differences (p < 0.05) are indicated by the following signs: "*" indicates the differences between the SIA-supplemented Group and the Control Group; and "†" indicates the differences between the Reference Group and the Control Group. Average baseline fEPSP for each group was assigned the value of 100, and the rest of the fEPSP were referred to that value.

rats [6] = test: Y-maze testing, Example 1 (Retention Trial and Memory Trial); format: in vivo, Sprague-Dawley rat; conditions: PND90
Description: In order to establish the role of free sialic acid in cognition, rat pups were supplemented with free N-Acetylneuraminic acid (Neu5Ac) from postnatal day 3 (PND3) and their learning and memory abilities were analyzed later in life. Rat performance in a classical spatial cognitive task (Y-maze) was evaluated once the animals […]. LTP response in hippocampus was also evaluated postnatal day 110 (PND110).
The pups from the second cohort were divided into two groups and given the following designations: the SIA-supplemented group and the Control group. Pups in the SIA - supplemented group were given milk containing low sialic acid, and received a supplementation of free sialic acid since the same day of transfer to the foster mothers until weaning. There were a total of 12 male pups in the SIA -supplemented group. The SIA -supplemented group received free sialic acid supplementation (8 doses/day) in order to reach the same free sialic acid levels as normally reared pups. The amount of free sialic acid given to the SIA-supplemented group was selected to follow the change in concentration of sialic acid in rat milk, ranging from 1.5 g/Kg body weight on day 3 to 0.5 g/Kg body weight at weaning. The amount of sialic acid given to any pup was a maximum of 1.8 mg/Kg body weight on day 8.
The Y-maze is a widely accepted method of testing spatial orientation and memory capabilities in rats. Ten rats in each group were evaluated in the Y-maze. At postnatal day 90 (PND90) for each group, the rats were subjected to a training trial (hereinafter, the "Training Trial"). The approximate equivalent in human years to 90 days of rat life is 10 to 20 years of age. At 5 minutes post training, rats in each group were tested again to test their retention (hereinafter, the "Retention Trial"). At 48 hours post training, rats in each group were tested again to test their memory, (hereinafter, the "Memory Trial").
as §1, with “Training” for “Acquisition”, “minutes.” for “minutes. The Retention Trial took place 4 hours after the Acquisition Trial.”, “Retention Trial and the Memory” for “Retention”
During the Memory Trial, performed 48 hours after the Training Trial, a long time spent at the start of the Y-maze denotes anxiety and neophobia. Conversely, the longer time an animal spent at the novel arm indicates an interest in novelty and apparent ability to recognize which arms they had visited previously.

[7] = Memory Trial 48 hours post training, read from FIG. 2

| SMILES | latency to blocked arm (rats [1]) | percentage of animals visiting the previously blocked arm first (rats [1]) | persistence of LTP induction [2] | fEPSP values / LTP response evoked after the HFS train, in words [2] | fEPSP values / LTP response evoked after the HFS train, in words ([2]; listed as 6'SL) | speed of learning (rats [3]) | visits to the correct corner versus the incorrect corner (performance) (rats [3]) | time spent exploring the novel object versus the familiar object (rats [4]) | persistence of LTP response ([5]; 72 hours post stimulus) | fEPSP slope after high-frequency stimulation ([5]; average baseline fEPSP assigned the value of 100, FIG. 3) | fEPSP slope forty-eight hours after high-frequency stimulation ([5]; baseline = 100, FIG. 3) | fEPSP slope seventy-two hours after high-frequency stimulation ([5]; baseline = 100, FIG. 3) | fEPSP slope twenty-four hours after high-frequency stimulation ([5]; baseline = 100, FIG. 3) | LTP response evoked by the stimulus, in words [5] | LTP response evoked by the stimulus, in words ([5]; listed as free sialic acid) | time spent in the novel arm (rats [6]; [7]) | time spent in the start arm (rats [6]; [7]) | Y-maze performance, in words (rats [6]; compared with Reference Group / non-supplemented control animals, listed as free sialic acid) | novel arm preference (percentage of animals that preferred the novel arm first) (rats [6]; Retention Trial 5 minutes post training, pups supplemented PND3 to weaning, read from FIG. 1) | time spent exploring the novel object versus the familiar object (rats [4]; listed as NeuAc) |
| --- | --- | --- | --- | --- | --- | --- | --- | --- | --- | --- | --- | --- | --- | --- | --- | --- | --- | --- | --- | --- |
| CC(=O)NC1C(O)CC(OCC2OC(OC3C(CO)OC(O)C(O)C3O)C(O)C(O)C2O)(C(=O)O)OC1C(O)C(O)CO (stereo not shown) [6'-SL, 6'-sialyllactose] | lower values of latency to the blocked arm in comparison with Control group | significantly higher than that of the control animals | remaining; also recorded: remained at elevated levels even 4 days post stimulus | significantly larger | strongest response; also recorded: significantly higher LTP response levels than those of the control group | seemed to learn faster than the Control group | performed better compared to the Control group | significantly more time visiting the novel object than the familiar one; also recorded: distinguish better between the familiar and novel object | – | – | – | – | – | – | – | – | – | – | – | – |
| CC(=O)N[C@H]1[C@H]([C@H](O)[C@H](O)CO)OC(O)(C(=O)O)C[C@@H]1O (stereo partly shown) [SIA, N-Acetylneuraminic acid] | lower values of latency to the blocked arm in comparison with Control group | significantly higher than that of the control animals | remaining | – | – | seemed to learn faster than the Control group | performed better compared to the Control group | – | remained at high levels | about 220 | ~160 | ~140 | about 205 | strongest response | significantly higher LTP response levels than those of the control group | about 65 seconds | about 40 seconds | performed better and similarly to reference animals | about 57% | significantly more time visiting the novel object than the familiar one; also recorded: distinguish better between the familiar and novel object |
